Measured values taken from EPA's ToxRefDB 2.

How the values were obtained:
rat [1] = details: Sub-acute repeat dose toxicity; sprague dawley; Injection; Subcutaneous; dose end: 5 day; group: systemic; systemic / in life observation / clinical signs / erythema + systemic / in life observation / clinical signs / scabbing + systemic / in life…
rat [2] = details: Subchronic oral toxicity in rodents, sprague dawley, Feed, dose end: 90 day, group: systemic
rat [3] = details: Combined chronic toxicity/carcinogenicity, sprague dawley, Oral, Feed, dose end: 24 month, group: systemic
mouse [4] = details: Subchronic oral toxicity in rodents, Feed, dose end: 3 month, group: systemic
rat [5] = details: Prenatal developmental toxicity study, sprague dawley, Oral, Gavage/Intubation, dose end: 15 GD
dog [6] = details: Chronic toxicity; beagle; Oral; Capsule; dose end: 52 week; group: systemic; systemic / hematology / anemia / anemia - hemolytic + systemic / hematology / erythrocyte (rbc) count differential / erythrocyte (rbc) + …
mouse [7] = details: Carcinogenicity; other; Oral; Feed; group: systemic; systemic / hematology / anemia / anemia - nos + systemic / pathology microscopic / bone marrow / hemosiderosis + systemic / pathology …
rat [8] = details: Multigenerational reproductive toxicity study, other, Oral, Feed, dose end: 2 generation
dog [9] = details: Subchronic oral toxicity in nonrodent, beagle, Capsule, dose end: 13 week, group: systemic
rat [10] = details: Subchronic oral toxicity in rodents, sprague dawley, Feed, dose end: 13 week, group: systemic, systemic / clinical chemistry / cholesterol / cholesterol + systemic / clinical chemistry / globulins / globulins + systemic / clinical …
rat [11] = details: Sub-acute repeat dose toxicity; sprague dawley; Oral; Feed; dose end: 28 day; group: systemic; systemic / clinical chemistry / cholesterol / cholesterol + systemic / clinical chemistry / triglycerides / triglycerides + systemic / …
rat [12] = details: Developmental neurotoxicity study, other, Oral, Gavage/Intubation, dose end: 140 PND, group: cannot be grouped
rat [13] = details: Prenatal developmental toxicity study, sprague dawley, Oral, Gavage/Intubation, dose end: 17 GD
rabbit = details: Prenatal developmental toxicity study, new zealand white, Oral, Gavage/Intubation, dose end: 19 GD
[14] = systemic / in life observation / body weight / body weight + systemic / in life observation / food consumption / food consumption + systemic…
[15] = systemic / hematology / anemia / anemia - hemolytic + systemic / in life observation / body weight / body weight + systemic / in life …
[16] = systemic / in life observation / clinical signs / alopecia
[17] = systemic / organ weight / spleen / relative to body weight
[18] = systemic / organ weight / spleen / relative to body weight + systemic / pathology microscopic / spleen / hemosiderosis + systemic / in life …
[19] = group: developmental, developmental / developmental malformation / trunk / umbilical hernia
[20] = group: maternal, systemic / in life observation / clinical signs / hemorrhagic perineal discharge
[21] = group: maternal, systemic / in life observation / clinical signs / hemorrhagic perineal discharge + reproductive / reproductive performance / …
[22] = group: offspring, systemic / in life observation / body weight / offspring (pup) weight + systemic / in life observation / body weight / offspring (pup) …
[23] = group: parental, systemic / organ weight / spleen / absolute + systemic / organ weight / spleen / relative to body weight + systemic / pathology microscopic…
[24] = group: parental, systemic / organ weight / spleen / relative to body weight
[25] = systemic / hematology / anemia / anemia - hemolytic + systemic / hematology / erythrocyte (rbc) count differential / erythrocyte (rbc) + …
[26] = reproductive / offspring survival early / birth index / birth index + reproductive / reproductive performance / gestational length / …
[27] = systemic / in life observation / body weight / offspring (pup) weight + systemic / organ weight / thymus / relative to body weight
[28] = group: developmental, developmental / developmental malformation / bone / wavy + developmental / developmental malformation / kidney / [other] + developmental / …
[29] = group: maternal, reproductive / reproductive performance / resorptions / resorptions + systemic / in life observation / body weight / body weight gain + …
[30] = group: maternal, systemic / in life observation / body weight / body weight gain + systemic / in life observation / food consumption / food consumption
[31] = group: developmental, developmental / developmental malformation / heart / atrial septum defect

## COCc1nnc(-c2ccc[n+]([O-])c2)n1-c1c(Cl)c(Cl)cc2[nH]c(=O)c(=O)[nH]c12
Rat [1]
  LEL: 20 mg/kg/day
  LOAEL: > 20 mg/kg/day
  NEL: < 20 mg/kg/day
  NOAEL: ≥ 20 mg/kg/day

## CSC(=O)c1cccc2nnsc12 [Acibenzolar-S-methyl]
Rat [2]; systemic / clinical chemistry / sodium / sodium
  LEL: 126 mg/kg/day
Rat [2]; [14]
  LOAEL: 516 mg/kg/day
  NEL: 24.6 mg/kg/day
  NOAEL: 126 mg/kg/day
Rat [3]; [15]
  LOAEL: 312 mg/kg/day
  NOAEL: 96.9 mg/kg/day
Rat [3]; [16]
  LEL: 0.9 mg/kg/day
  NEL: < 0.9 mg/kg/day
Mouse [4]; [17]
  LEL: 47.4 mg/kg/day
  NEL: < 47.4 mg/kg/day
Mouse [4]; [18]
  LOAEL: 152 mg/kg/day
  NOAEL: 30.6 mg/kg/day
Rat [5]; [19]
  LEL: 10 mg/kg/day
  LOAEL: 10 mg/kg/day
  NEL: < 10 mg/kg/day
  NOAEL: < 10 mg/kg/day
Rat [5]; [20]
  LEL: 50 mg/kg/day
  LOAEL: 400 mg/kg/day
Rat [5]; [21]
  NEL: 10 mg/kg/day
  NOAEL: 200 mg/kg/day
Dog [6]
  LEL: 200 mg/kg/day
  LOAEL: 200 mg/kg/day
  NEL: 25 mg/kg/day
  NOAEL: 25 mg/kg/day
Mouse [7]
  LEL: 234 mg/kg/day
  LOAEL: 234 mg/kg/day
  NEL: 10.8 mg/kg/day
  NOAEL: 10.8 mg/kg/day
Rat [8]; [22]
  LEL: 100 mg/kg/day
  LOAEL: 100 mg/kg/day
  NEL: 10 mg/kg/day
  NOAEL: 10 mg/kg/day
Rat [8]; [23]
  LOAEL: 100 mg/kg/day
  NOAEL: 10 mg/kg/day
Rat [8]; [24]
  LEL: 1 mg/kg/day
  NEL: < 1 mg/kg/day
Dog [9]; [25]
  LOAEL: 200 mg/kg/day
  NEL: 10 mg/kg/day
  NOAEL: 50 mg/kg/day
Dog [9]; systemic / organ weight / liver / absolute + systemic / organ weight / liver / relative to body weight
  LEL: 50 mg/kg/day

## O=B[O-].O=B[O-].[Ba+2] [Barium metaborate]
Rat [10]
  LEL: 349 mg/kg/day
  LOAEL: 349 mg/kg/day
  NEL: 70 mg/kg/day
  NOAEL: 70 mg/kg/day
Rat [11]
  LEL: 881 mg/kg/day
  LOAEL: 881 mg/kg/day
  NEL: 459 mg/kg/day
  NOAEL: 459 mg/kg/day

## Cl.O=C(c1ccc(OCCN2CCCCC2)cc1)c1c(-c2ccc(O)cc2)sc2cc(O)ccc12 [Raloxifene hydrochloride]
Rat [12]; [26]
  LOAEL: > 10 mg/kg/day
  NOAEL: ≥ 10 mg/kg/day
Rat [12]; [27]
  LEL: 0.1 mg/kg/day
  NEL: < 0.1 mg/kg/day
Rat [13]; group: developmental, developmental / developmental malformation / bone / wavy + developmental / developmental malformation / kidney / [other]
  LEL: 1 mg/kg/day
Rat [13]; [28]
  LOAEL: > 10 mg/kg/day
  NEL: 0.1 mg/kg/day
  NOAEL: ≥ 10 mg/kg/day
Rat [13]; [29]
  LOAEL: > 10 mg/kg/day
  NOAEL: ≥ 10 mg/kg/day
Rat [13]; [30]
  LEL: 0.1 mg/kg/day
  NEL: < 0.1 mg/kg/day
rabbit; [31]
  LEL: 0.1 mg/kg/day
  LOAEL: > 10 mg/kg/day
  NEL: < 0.1 mg/kg/day
  NOAEL: ≥ 10 mg/kg/day
rabbit; [30]
  LEL: 10 mg/kg/day
  LOAEL: > 10 mg/kg/day
  NEL: 1 mg/kg/day
  NOAEL: ≥ 10 mg/kg/day
